According to US20130281399A1, “TREATMENT OF DISEASES BY EPIGENETIC REGULATION” (RVX Therapeutics Inc., priority 2012, published 2013):

What was measured:
Brd4 bromodomain 1 = biological target: T1, Brd4 bromodomain 1 (Homo sapiens, UniProt O60885); assay: Inhibition of binding of tetra-acetylated histone H4 to Brd4 bromodomain 1 (TR-FRET); conditions: His-tagged Brd4 bromodomain 1 200 nM, tetra-acetylated histone H4 peptide 25-50 nM, 2 hours room temperature
T1 construct: made in house; host or cells: E. coli BL21(DE3)
In short: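 His-tagged Brd4 BD1 was expressed in E. coli and purified by Ni affinity and size exclusion. TR-FRET competition with tetra-acetylated H4 was run in 30 mM HEPES pH 7.4, 30 mM NaCl, 0.3 mM CHAPS, 20 mM phosphate pH 7.0, 320 mM KF and 0.08% BSA, with 0.2% DMSO.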

c-myc = assay: Inhibition of c-myc expression in MV4-11 cells (real-time PCR of mRNA); format: cell-based, Human; conditions: 3 hours at 37° C.
Procedure: MV4-11 cells (2.5×10^4 cells) were plated in 96 well U-bottom plates with test compound or DMSO (0.1%), and incubated for 3 hours at 37° C. Cells were then harvested by centrifugation, lysed, and mRNA was isolated using the mRNA catcher plus kit (Invitrogen). Reverse transcription of the mRNA and duplex amplification of the c-myc and cyclophilin cDNAs was performed using the RNA Ultrasense kit (Invitrogen) and a ViiA7 real-time PCR machine (Applied Biosystems). IC50 values were determined from a dose response curve.

Human AML MV-4-11 cells = assay: Inhibition of cell proliferation in human AML MV-4-11 cells (CellTiter Aqueous One); format: cell-based; set-up: key: Active: Compounds with an IC50 value less than 30 μM were deemed to be active; conditions: 72 hours, 30 μM to 0.2 μM
Procedure: MV4-11 cells: 96-well plates were seeded with 5×10^4 cells per well of exponentially growing human AML MV-4-11 (CRL-9591) cells and immediately treated with two-fold dilutions of test compounds, ranging from 30 μM to 0.2 μM. Triplicate wells were used for each concentration, as well as a media only and three DMSO control wells. The cells and compounds were incubated at 37° C., 5% CO2 for 72 hours before adding 20 μL of the CellTiter Aqueous One Solution (Promega) to each well and incubated at 37° C., 5% CO2 for an additional 3-4 hours. The absorbance was taken at 490 nm in a spectrophotometer and the percentage of proliferation relative to DMSO-treated cells was calculated after correction from the blank well. IC50 were calculated using the GraphPad Prism software.

IL-6 = conditions: cited from earlier work
[1] = murine model; Lamotte et al. (2012); cited from earlier work
[2] = tested on: NUT (nuclear protein in testis) midline carcinoma (NMC); conditions: Filippakopoulos et al. (2010); cited from earlier work
multiple myeloma = conditions: associated with cell cycle arrest and cellular senescence; Delmore et al. (2011); cited from earlier work

## COc1cc(OCCNC(C)=O)cc(-c2nc3cc(OC)cc(OC)c3c(=O)[nH]2)c1 [Example 115, N-(2-(3-(5,7-dimethoxy-4-oxo-3,4-dihydroquinazolin-2-yl)-5-methoxyphenoxy)ethyl)acetamide]
Brd4 bromodomain 1
  FRET activity (<50 uM): Inactive
c-myc
  c-myc activity (<30 uM): Inactive
Human AML MV-4-11 cells
  cell proliferation activity (<30 uM): Active
other
  melting point: 264 to 265 °C

## COc1cc2c(cc1-c1c(C)noc1C)ncc1[nH]c(=O)n([C@H](C)c3ccccn3)c12 [I-BET151]
IL-6
  IL-6 expression in vivo: decrease IL-6 expression
[1]
  bacterial-induced inflammation and sepsis: suppress bacterial-induced inflammation and sepsis

## CCNC(=O)C[C@@H]1N=C(c2ccc(Cl)cc2)c2cc(OC)ccc2-n2c(C)nnc21 [I-BET]
IL-6
  IL-6 expression in vivo: decrease IL-6 expression

## Cc1sc2c(c1C)C(c1ccc(Cl)cc1)=N[C@@H](CC(=O)OC(C)(C)C)c1nnc(C)n1-2 [JQ1]
[2]
  antitumor activity in murine xenograft models of NMC: potent antitumor activity
Multiple myeloma
  antiproliferation in multiple myeloma: potent antiproliferator
